Where no end group is shown, it is not given here. [ ]: non-standard residue; d: D form. Phe(4-NO2) = N[C@@H](Cc1ccc([N+](=O)[O-])cc1)C(=O)O; Tic = O=C(O)[C@@H]1Cc2ccccc2CN1; Cha = N[C@@H](CC1CCCCC1)C(=O)O; Cit = NC(=O)NCCC[C@H](N)C(=O)O; Tle = CC(C)(C)[C@H](N)C(=O)O; hSer = N[C@@H](CCO)C(=O)O; βAla = NCCC(=O)O
Tests used:
CaCo2 monolayers [1] = experiment: Epithelial flux of Lucifer Yellow through cell monolayer; type: cell-based; parameters: key to Enhanced LY permeability: + indicates an enhancement of the permeability of the tight junctions were observed; − indicates no enhancement of permeability was observed; conditions: Lucifer Yellow flux, Caco-2 monolayer
Excerpt: (§1) Agonists of tight junctions can be identified by their ability to enhance the flux of compounds (e.g. ions, Lucifer Yellow) through a cell monolayer that comprises tight junctions; or by their ability to reduce TEER across a cell monolayer that comprises tight junctions. Treatment of CaCo2 monolayers with peptide FCIGRL (SEQ ID NO: 1) led to a 51-fold enhancement of Lucifer Yellow permeability through CaCo2 monolayers compared to vehicle alone. Treatment of CaCo2 monolayers with peptide FCIGRL led to a 16-fold decrease in TEER across CaCo2 monolayers compared to vehicle alone.
(§2) Determination of TEER and Lucifer Yellow Flux
(§3) Prepare Modified Hank's Balanced Salt Solution (MHBSS) by obtaining 1 L bottle of HBSS removing 10 ml of HBSS and replacing it with 10 ml HEPES buffer pH 7.0. Adjust pH to 7.4±0.1 using concentrated NaOH (10N).
(§4) Remove Caco-2 cells from incubator, grown on 12-well, […], polycarbonate Transwell® filters (Corning) and record passage#, date cells seeded and age in days.
(§5) Aspirate cell culture medium from both the apical (AP) and basolateral (BL) compartments, replacing with 0.5 ml and 1.5 ml of MHBSS, respectively. Incubate cells at 37° C. for 30 minutes.
(§6) Aspirate solution from the apical compartment of each filter (n=3 per condition) and replace with 0.5 ml of control and test solutions containing Lucifer Yellow and test compound if appropriate.
(§7) Place all plates into incubator set at 37° C. (±0.2), 50 RPM (±5) for a total of 180 minutes.
At t=60, 120 and 180 minutes remove 100 μl from each basolateral compartment and place it in a 96-well plate for Lucifer Yellow analysis, replace with 100 μl of MHBSS.
Make a Lucifer Yellow standard curve with the following dilutions (7500 μM, 3750 μM, 750 μM, 375 μM, 75 μM, 37.5 μM, 7.5 μM, 3.75 μM, 0.75 μM) and pipette […] of each into a 96-well plate except for the first three standards mentioned above which require a 1:10 dilutions prior to transferring to the 96-well plate.
Harvest the remaining start solutions and what is left in each apical compartment into 1.5 ml vials. Freeze at −20° C. for future analysis.
Analyze each 96-well plate in a Tecan Spectra Fluor Plus using Magellan at 485 and 535 nm.
(§8) Cells: Caco-2 cells passage 40-60 grown on Transwell® plates for 21-28 days
(§9) Culture Medium: DMEM supplemented with 10% fetal bovine serum, 1% NEAA, 1% Penn/Strep
(§10) Buffers: Hank's Balanced Salt Solution (HBSS) without calcium and magnesium
(§11) Flasks: 100×20 mm Tissue culture dish Falcon.
(§12) Plates: 12 well polycarbonate Transwell® filters; 0.3 uM pore size

CaCo2 monolayers [2] = experiment: Trans Epithelial Electric Resistance (TEER) across cell monolayer; type: cell-based; parameters: key to Reduced TEER: + indicates an enhancement of the permeability of the tight junctions were observed; − indicates no enhancement of permeability was observed; conditions: Caco-2 monolayer
Excerpt: as §1, §2, §3, §4, §5
Using the MilliCell®-ERS instrument (Millipore), measure and record the transepithelial electrical resistance (TEER) across each filter and record.
as §6, §7
At t=30, 60, 120 and 180 minutes, measure and record the transepithelial electrical resistance (TEER) across each filter using the MilliCell-ERS instrument.
as §8, §9, §10, §11, §12

| Substance | Enhanced LY permeability (CaCo2 monolayers [1]) | Reduced TEER (CaCo2 monolayers [2]) |
| --- | --- | --- |
| 1 (FCIGRL; not fully specified) [compound 1] | + | + |
| 4 (FCAGRL; not fully specified; printed as Phe-Cys-Ala-Gly-Arg-Leu) [compound 4] | − | − |
| 9 (IGRL; not fully specified; printed as Ile-Gly-Arg-Leu) [compound 9] | − | − |
| 12 ([dF]CIGRL; also: peptide conjugate) [compound 12] | + | + |
| 20 ([dL][dR]GI[dC][dF]; not fully specified; printed as D-Leu-D-Arg-Gly-Ile-D-Cys-D-Phe) [compound 20] | + | + |
| 21 ([dL]RG[dI][dC][dF]; not fully specified) [compound 21] | − | − |
| 26 (LRG[dI]CF; not fully specified; printed as Leu-Arg-Gly-D-Ile-Cys-Phe) [compound 26] | + | + |
| 27 (LRGI[dC]F; not fully specified; printed as Leu-Arg-Gly-Ile-D-Cys-Phe) [compound 27] | − | − |
| 28 (LRGIC[dF]; not fully specified; printed as Leu-Arg-Gly-Ile-Cys-D-Phe) [compound 28] | − | − |
| 30 ([dF][dC][dI]G[dR]L; not fully specified) [compound 30] | + | + |
| 31 ([dF][dC][dI]GR[dL]; not fully specified) [compound 31] | − | − |
| 34 (F[dC][dI]G[dR][dL]; not fully specified) [compound 34] | − | − |
| 35 (F[dC]IG[dR]L; not fully specified; printed as Phe-D-Cys-Ile-Gly-D-Arg-Leu) [compound 35] | + | + |
| 36 ([dL]RGICF; not fully specified; printed as D-Leu-Arg-Gly-Ile-Cys-Phe) [compound 36] | − | − |
| 37 ([dL][dR]GICF; not fully specified; printed as D-Leu-D-Arg-Gly-Ile-Cys-Phe) [compound 37] | − | − |
| 38 ([dL][dR]GIC[dF]; not fully specified) [compound 38] | − | − |
| 39 ([dL][dR]GI[dC]F; not fully specified) [compound 39] | − | − |
| 51 (H-[dA]CIGRG-OH; not fully specified) [compound 51] | + | + |
| 63 (H-FCIGRF-OH; not fully specified) [compound 63] | + | + |
| 69 (H-FCIGRLC-OH; not fully specified; cysteine pairing not given here) [compound 69] |  | − |
| 74 (YCIGRL; not fully specified; printed as Tyr-Cys-Ile-Gly-Arg-Leu) [compound 74] | + | + |
| 75 (Ac-ACIGRL; not fully specified; printed as Ac-Ala-Cys-Ile-Gly-Arg-Leu) [compound 75] | + | + |

| Substance | Enhanced LY permeability (CaCo2 monolayers [1]) | Reduced TEER (CaCo2 monolayers [2]) |
| --- | --- | --- |
| 76 (WCIGRL; not fully specified; printed as Trp-Cys-Ile-Gly-Arg-Leu) [compound 76] | + | + |
| 77 (Ac-ACIGRS; not fully specified; printed as Ac-Ala-Cys-Ile-Gly-Arg-Ser) [compound 77] |  | − |
| 78 (Ac-ACIGRA; not fully specified; printed as Ac-Ala-Cys-Ile-Gly-Arg-Ala) [compound 78] | + | − |
| 80 (SLIGRL-NH2; not fully specified; printed as Ser-Leu-Ile-Gly-Arg-Leu-NH2) [compound 80] | + | + |
| 83 (GFCIGRL; not fully specified; printed as Gly-Phe-Cys-Ile-Gly-Arg-Leu) [compound 83] | + | + |
| 87 (Ac-FLIGRL-NH2; not fully specified) [compound 87] | + | + |
| 96 (H-FCIGR[βAla]-OH; SMILES CC[C@H](C)[C@H](NC(=O)[C@H](CS)NC(=O)[C@@H](N)Cc1ccccc1)C(=O)NCC(=O)N[C@@H](CCCNC(=N)N)C(=O)NCCC(=O)O) [compound 96] | + | + |
| 97 (H-FCIGR[Tle]-OH; SMILES CC[C@H](C)[C@H](NC(=O)[C@H](CS)NC(=O)[C@@H](N)Cc1ccccc1)C(=O)NCC(=O)N[C@@H](CCCNC(=N)N)C(=O)N[C@H](C(=O)O)C(C)(C)C) [compound 97] | + | + |
| 101 (H-FCIGR[Cha]-OH; SMILES CC[C@H](C)[C@H](NC(=O)[C@H](CS)NC(=O)[C@@H](N)Cc1ccccc1)C(=O)NCC(=O)N[C@@H](CCCNC(=N)N)C(=O)N[C@@H](CC1CCCCC1)C(=O)O) [compound 101] | + | + |
| 104 (FCIG[Cit]L) [compound 104] |  | − |
| 105 ([Phe(4-NO2)]CIGRL) [compound 105] |  | − |
| 109 ([Tic]CIGRL) [compound 109] |  | − |
| 114 (FTIGRL; also: peptide conjugate) [compound 114] | + | + |
| 115 (FSIGRL; also: peptide conjugate) [compound 115] | + | + |
| 116 (FMIGRL; also: peptide conjugate) [compound 116] | − | − |
| 117 (FLIGRL-NH2; also: peptide conjugate) [compound 117] | − | − |
| 118 (FFLIGRL-NH2; also: peptide conjugate) [compound 118] | + | + |
| 119 (FFIGRL; also: peptide conjugate) [compound 119] | − | + |
| 120 (FPIGRL; also: peptide conjugate) [compound 120] | − | − |
| 121 (FWIGRL; also: peptide conjugate) [compound 121] | + | + |
| 141 (H-F[hSer]IGRL-OH; SMILES CC[C@H](C)[C@H](NC(=O)[C@H](CCO)NC(=O)[C@@H](N)Cc1ccccc1)C(=O)NCC(=O)N[C@@H](CCCNC(=N)N)C(=O)N[C@@H](CC(C)C)C(=O)O) [compound 141] | + |  |
